Results as given in ChEMBL document CHEMBL3351418, “In vitro induction of apoptosis by isosclerone from marine-derived fungus Aspergillus fumigatus” (Bioorg Med Chem Lett, 2014).
Active and inactive are the calls of the source. No cut-off for these calls is given here.

How the values were obtained:
MCF7 [1] = test: Induction of apoptosis in human MCF7 cells assessed as increase in caspase-8 expression by Western blot analysis; type: functional, cell-based
MCF7 [2] = test: Cytotoxicity against human MCF7 cells assessed as cell viability at 20 uM after 36 hrs by MTT assay (Rvb =100%); type: functional; conditions: MCF7, 36 h, read-out: Activity
MCF7 [3] = test: Downregulation of Akt gene expression in human MCF7 cells at 20 to 60 uM by RT-PCR analysis; type: functional, cell-based
MCF7 [4] = test: Induction of apoptosis in human MCF7 cells assessed as increase in DNA fragmentation […] by agarose gel electrophoresis; type: functional, cell-based
[5] = biological target: T1, Inhibitor of nuclear factor kappa-B kinase subunit alpha (Homo sapiens) (UniProt O15111); test: Inhibition of human IKKalpha activation in human MCF7 cells by Western blot analysis; type: cell-based
T1 sequence (whole entry): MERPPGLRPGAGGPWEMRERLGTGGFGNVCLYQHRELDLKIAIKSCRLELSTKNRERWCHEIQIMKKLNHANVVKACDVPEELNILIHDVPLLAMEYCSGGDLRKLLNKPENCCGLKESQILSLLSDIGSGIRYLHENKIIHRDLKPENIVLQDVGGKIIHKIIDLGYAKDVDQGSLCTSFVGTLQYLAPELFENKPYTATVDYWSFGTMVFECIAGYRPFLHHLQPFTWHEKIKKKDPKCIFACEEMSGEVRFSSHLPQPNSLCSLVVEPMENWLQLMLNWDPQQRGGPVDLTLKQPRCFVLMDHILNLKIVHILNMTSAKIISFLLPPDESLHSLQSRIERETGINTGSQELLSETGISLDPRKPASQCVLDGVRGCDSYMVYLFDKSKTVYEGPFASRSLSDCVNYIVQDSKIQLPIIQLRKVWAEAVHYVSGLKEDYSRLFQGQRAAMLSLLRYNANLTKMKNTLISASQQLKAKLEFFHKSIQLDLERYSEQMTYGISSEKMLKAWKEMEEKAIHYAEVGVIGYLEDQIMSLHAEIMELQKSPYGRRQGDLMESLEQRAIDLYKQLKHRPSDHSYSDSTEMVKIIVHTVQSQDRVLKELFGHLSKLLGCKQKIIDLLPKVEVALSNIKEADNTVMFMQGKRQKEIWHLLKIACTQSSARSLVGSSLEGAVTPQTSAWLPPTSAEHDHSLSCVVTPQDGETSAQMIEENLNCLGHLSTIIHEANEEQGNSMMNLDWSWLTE

MCF7 [6] = test: Induction of apoptosis in human MCF7 cells assessed as increase in caspase-9 gene expression by RT-PCR analysis; type: functional, cell-based
MCF7 [7] = test: Induction of apoptosis in human MCF7 cells assessed as increase in caspase-3 expression by Western blot analysis; type: functional, cell-based
[8] = biological target: T2, Inhibitor of nuclear factor kappa-B kinase subunit beta (Homo sapiens) (UniProt O14920); test: Inhibition of human IKKbeta activation in human MCF7 cells by Western blot analysis; type: cell-based
T2 sequence (whole entry): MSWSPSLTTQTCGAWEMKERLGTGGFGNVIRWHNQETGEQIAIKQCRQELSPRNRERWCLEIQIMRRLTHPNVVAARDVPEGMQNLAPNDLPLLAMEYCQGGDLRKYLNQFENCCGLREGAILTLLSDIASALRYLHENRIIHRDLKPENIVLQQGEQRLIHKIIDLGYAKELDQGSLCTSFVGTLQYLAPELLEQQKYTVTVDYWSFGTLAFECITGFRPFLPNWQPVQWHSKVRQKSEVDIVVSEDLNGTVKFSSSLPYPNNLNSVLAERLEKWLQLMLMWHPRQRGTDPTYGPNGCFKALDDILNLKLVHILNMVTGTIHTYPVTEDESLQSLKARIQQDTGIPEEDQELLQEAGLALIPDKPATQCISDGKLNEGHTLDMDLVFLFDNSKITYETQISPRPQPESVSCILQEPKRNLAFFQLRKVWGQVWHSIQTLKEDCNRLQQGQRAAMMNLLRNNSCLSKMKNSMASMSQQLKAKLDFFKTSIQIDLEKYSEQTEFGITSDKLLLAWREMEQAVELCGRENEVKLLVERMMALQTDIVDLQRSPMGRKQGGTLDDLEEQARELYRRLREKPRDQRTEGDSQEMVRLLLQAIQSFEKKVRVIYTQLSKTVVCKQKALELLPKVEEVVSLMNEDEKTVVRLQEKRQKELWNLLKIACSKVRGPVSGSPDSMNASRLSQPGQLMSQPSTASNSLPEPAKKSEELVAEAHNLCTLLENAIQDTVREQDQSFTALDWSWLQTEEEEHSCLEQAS

MCF7 [9] = test: Inhibition of P50 protein expression in human MCF7 cells after 24 hrs by Western blot analysis; type: functional, cell-based
MCF7 [10] = test: Induction of apoptosis in human MCF7 cells assessed as increase in caspase-8 gene expression by RT-PCR analysis; type: functional, cell-based
MCF7 [11] = test: Induction of apoptosis in human MCF7 cells assessed as increase in DNA damage after 24 hrs by Hoechst staining based inverted fluorescent microscopy; type: functional, cell-based
[12] = biological target: Apoptosis regulator Bcl-2 (Homo sapiens, UniProt P10415); test: Binding affinity to Bcl-2 (unknown origin)
MCF7 [13] = test: Induction of apoptosis in human MCF7 cells assessed as increase in caspase-3 gene expression by RT-PCR analysis; type: functional, cell-based
MCF7 [14] = test: Effect on phosphorylation of Akt in human MCF7 cells at 20 to 60 uM by Western blot analysis; type: cell-based
MCF7 [15] = test: Inhibition of P65 protein expression in human MCF7 cells after 24 hrs by Western blot analysis; type: functional, cell-based
MCF7 [16] = test: Downregulation of PI3K protein expression in human MCF7 cells at 20 to 60 uM by Western blot analysis; type: functional, cell-based
MCF7 [17] = test: Downregulation of PI3K gene expression in human MCF7 cells at 20 to 60 uM by RT-PCR analysis; type: functional, cell-based
MCF7 [18] = test: Induction of apoptosis in human MCF7 cells assessed as up-regulation of Bax protein expression at 20 to 60 uM after 24 hrs by Western blot analysis; type: functional, cell-based
MCF7 [19] = test: Cytotoxicity against human MCF7 cells assessed as cell viability at 20 uM after 24 hrs by MTT assay (Rvb =100%); type: functional; conditions: MCF7, 24 h, read-out: Activity
MCF7 [20] = test: Cytotoxicity against human MCF7 cells assessed as cell viability at 60 uM after 36 hrs by MTT assay (Rvb =100%); type: functional; conditions: MCF7, 36 h, read-out: Activity
MCF7 [21] = test: Cytotoxicity against human MCF7 cells assessed as cell viability at 40 uM after 24 hrs by MTT assay (Rvb =100%); type: functional; conditions: MCF7, 24 h, read-out: Activity
MCF7 [22] = test: Induction of apoptosis in human MCF7 cells assessed as down-regulation of Bcl-2 protein expression at 20 to 60 uM after 24 hrs by Western blot analysis; type: functional, cell-based
MCF7 [23] = test: Cytotoxicity against human MCF7 cells assessed as cell viability at 20 uM by MTT assay; type: functional, cell-based; conditions: TDE = time-dependent effect
[24] = biological target: T1, Inhibitor of nuclear factor kappa-B kinase subunit alpha (Homo sapiens); test: Inhibition of human IKK expression in human MCF7 cells after 24 hrs by Western blot analysis; type: cell-based
MCF7 [25] = test: Induction of apoptosis in human MCF7 cells assessed as increase in mitochondrial cytochrome C release at 20 to 60 uM after 24 hrs by Western blot analysis; type: functional, cell-based
[26] = biological target: Nuclear factor NF-kappa-B complex (Homo sapiens) (UniProt Q00653+P19838+Q04206); test: Inhibition of NF-kappaB activation in human MCF7 cells; type: cell-based
MCF7 [27] = test: Cytotoxicity against human MCF7 cells assessed as cell viability at 60 uM after 24 hrs by MTT assay (Rvb =100%); type: functional; conditions: MCF7, 24 h, read-out: Activity
MCF7 [28] = test: Downregulation of Akt protein expression in human MCF7 cells at 20 to 60 uM by Western blot analysis; type: functional, cell-based
Caspase-3 = biological target: T3, Caspase-3 (Homo sapiens, UniProt P42574); test: Binding affinity to procaspase-3 (unknown origin)
T3 sequence (P42574 whole entry): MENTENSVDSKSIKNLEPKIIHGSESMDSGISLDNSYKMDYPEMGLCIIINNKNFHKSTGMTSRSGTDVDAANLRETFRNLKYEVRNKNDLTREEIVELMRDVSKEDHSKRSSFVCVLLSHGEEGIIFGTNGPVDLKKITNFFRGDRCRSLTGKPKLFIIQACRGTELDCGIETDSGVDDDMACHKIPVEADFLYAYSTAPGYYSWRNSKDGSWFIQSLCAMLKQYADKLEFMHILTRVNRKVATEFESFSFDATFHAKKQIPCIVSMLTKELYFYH

MCF7 [29] = test: Induction of apoptosis in human MCF7 cells assessed as up-regulation of Bax gene expression at 20 to 60 uM after 24 hrs by RT-PCR analysis; type: functional, cell-based
MCF7 [30] = test: Cytotoxicity against human MCF7 cells assessed as cell viability after 24 to 36 hrs by MTT assay; type: functional, cell-based
MCF7 [31] = test: Induction of apoptosis in human MCF7 cells assessed as increase in caspase-9 expression by Western blot analysis; type: functional, cell-based
MCF7 [32] = test: Cytotoxicity against human MCF7 cells assessed as cell viability at 40 uM after 36 hrs by MTT assay (Rvb =100%); type: functional; conditions: MCF7, 36 h, read-out: Activity
MCF7 [33] = test: Induction of apoptosis in human MCF7 cells assessed as increase in mitochondrial Apaf-1 release at 20 to 60 uM after 24 hrs by Western blot analysis; type: functional, cell-based

Sequence of Apoptosis regulator Bcl-2 (P10415 whole entry): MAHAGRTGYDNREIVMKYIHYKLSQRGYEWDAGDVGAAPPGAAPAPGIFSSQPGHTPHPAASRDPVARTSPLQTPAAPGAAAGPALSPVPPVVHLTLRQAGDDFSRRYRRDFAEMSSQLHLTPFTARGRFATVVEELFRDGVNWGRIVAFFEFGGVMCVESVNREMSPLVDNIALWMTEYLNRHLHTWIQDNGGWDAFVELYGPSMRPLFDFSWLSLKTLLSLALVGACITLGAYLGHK
Sequence of Nuclear factor NF-kappa-B complex (Homo sapiens) (P19838 whole entry, looked up): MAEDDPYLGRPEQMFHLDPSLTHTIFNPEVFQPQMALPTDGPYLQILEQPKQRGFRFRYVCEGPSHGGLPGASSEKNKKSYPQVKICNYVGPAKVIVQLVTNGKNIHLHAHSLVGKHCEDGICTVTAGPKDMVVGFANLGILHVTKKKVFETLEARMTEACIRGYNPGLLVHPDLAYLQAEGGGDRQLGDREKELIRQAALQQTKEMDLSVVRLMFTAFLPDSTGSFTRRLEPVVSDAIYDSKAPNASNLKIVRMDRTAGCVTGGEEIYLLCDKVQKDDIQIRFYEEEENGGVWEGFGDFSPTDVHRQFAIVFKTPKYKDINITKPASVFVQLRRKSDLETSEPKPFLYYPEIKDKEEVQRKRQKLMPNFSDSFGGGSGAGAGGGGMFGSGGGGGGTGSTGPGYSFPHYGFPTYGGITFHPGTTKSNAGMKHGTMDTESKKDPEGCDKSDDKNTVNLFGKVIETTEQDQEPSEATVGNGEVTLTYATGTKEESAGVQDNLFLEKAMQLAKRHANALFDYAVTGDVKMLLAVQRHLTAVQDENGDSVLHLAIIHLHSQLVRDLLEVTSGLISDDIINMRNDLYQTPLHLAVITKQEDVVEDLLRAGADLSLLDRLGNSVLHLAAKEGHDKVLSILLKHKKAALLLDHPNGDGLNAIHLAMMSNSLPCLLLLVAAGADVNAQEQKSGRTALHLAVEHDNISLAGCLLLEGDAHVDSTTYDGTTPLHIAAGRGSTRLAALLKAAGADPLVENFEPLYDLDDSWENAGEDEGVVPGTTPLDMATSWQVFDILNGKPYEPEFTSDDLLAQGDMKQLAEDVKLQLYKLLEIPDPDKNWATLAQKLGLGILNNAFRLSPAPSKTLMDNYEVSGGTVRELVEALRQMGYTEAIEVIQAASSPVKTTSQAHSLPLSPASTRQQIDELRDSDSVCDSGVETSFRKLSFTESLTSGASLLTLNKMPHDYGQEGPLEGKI
Sequence of Nuclear factor NF-kappa-B complex (Homo sapiens) (Q00653 whole entry, looked up): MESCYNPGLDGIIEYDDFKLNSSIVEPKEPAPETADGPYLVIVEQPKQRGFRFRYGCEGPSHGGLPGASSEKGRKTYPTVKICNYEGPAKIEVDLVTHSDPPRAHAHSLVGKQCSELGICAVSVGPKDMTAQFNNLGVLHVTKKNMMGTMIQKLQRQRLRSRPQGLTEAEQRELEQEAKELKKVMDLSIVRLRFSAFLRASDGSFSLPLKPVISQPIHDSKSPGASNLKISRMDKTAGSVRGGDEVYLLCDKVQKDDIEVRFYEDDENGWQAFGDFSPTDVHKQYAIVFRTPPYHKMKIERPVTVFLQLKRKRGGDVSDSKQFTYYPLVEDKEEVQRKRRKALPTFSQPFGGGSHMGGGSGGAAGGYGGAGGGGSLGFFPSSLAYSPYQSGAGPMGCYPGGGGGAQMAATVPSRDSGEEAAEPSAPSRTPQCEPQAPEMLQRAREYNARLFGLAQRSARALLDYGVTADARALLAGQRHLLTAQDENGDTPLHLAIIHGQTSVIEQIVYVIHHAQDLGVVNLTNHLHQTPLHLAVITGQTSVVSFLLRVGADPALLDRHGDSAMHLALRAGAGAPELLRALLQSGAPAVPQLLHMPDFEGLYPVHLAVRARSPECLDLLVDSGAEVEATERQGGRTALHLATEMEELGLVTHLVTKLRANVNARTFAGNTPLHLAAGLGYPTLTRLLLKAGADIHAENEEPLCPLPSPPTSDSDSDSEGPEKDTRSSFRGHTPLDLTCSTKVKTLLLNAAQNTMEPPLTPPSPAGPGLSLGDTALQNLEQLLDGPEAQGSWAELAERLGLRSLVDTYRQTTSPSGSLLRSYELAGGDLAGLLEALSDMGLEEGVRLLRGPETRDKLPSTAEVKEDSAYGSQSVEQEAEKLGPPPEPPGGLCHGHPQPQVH
Sequence of Nuclear factor NF-kappa-B complex (Homo sapiens) (Q04206 whole entry, looked up): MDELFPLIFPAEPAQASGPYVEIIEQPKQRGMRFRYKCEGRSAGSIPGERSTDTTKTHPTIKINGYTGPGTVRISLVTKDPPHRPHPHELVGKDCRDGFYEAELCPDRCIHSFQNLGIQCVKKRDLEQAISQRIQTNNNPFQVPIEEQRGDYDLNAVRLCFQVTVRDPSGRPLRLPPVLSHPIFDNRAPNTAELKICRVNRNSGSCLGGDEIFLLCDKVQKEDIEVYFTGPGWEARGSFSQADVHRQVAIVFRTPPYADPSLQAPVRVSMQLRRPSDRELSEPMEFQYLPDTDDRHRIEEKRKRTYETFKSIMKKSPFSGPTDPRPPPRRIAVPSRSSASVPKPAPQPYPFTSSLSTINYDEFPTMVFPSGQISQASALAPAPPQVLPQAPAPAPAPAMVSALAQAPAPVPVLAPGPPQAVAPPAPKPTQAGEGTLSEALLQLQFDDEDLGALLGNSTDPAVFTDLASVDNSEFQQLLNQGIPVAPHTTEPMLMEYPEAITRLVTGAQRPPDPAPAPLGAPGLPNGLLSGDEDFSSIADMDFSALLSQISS

O=C1CC[C@H](O)c2cccc(O)c21
Activity (MCF7 [1]): Dose-dependent effect
viability at 20 µM (MCF7 [2]): 87%
inhibition (MCF7 [3]): Active
Activity (MCF7 [4]): Dose-dependent effect
inhibition [5]: Active
Activity (MCF7 [6]): Dose-dependent effect
Activity (MCF7 [7]): Dose-dependent effect
inhibition [8]: Active
inhibition (MCF7 [9]): Dose-dependent effect
Activity (MCF7 [10]): Dose-dependent effect
Activity (MCF7 [11]): Dose-dependent effect
Ki [12]: 475 µM
Activity (MCF7 [13]): Dose-dependent effect
inhibition (MCF7 [14]): inactive
inhibition (MCF7 [15]): Dose-dependent effect
inhibition (MCF7 [16]): Active
inhibition (MCF7 [17]): Active
Activity (MCF7 [18]): Active
viability at 20 µM (MCF7 [19]): 97%
viability at 60 µM (MCF7 [20]): 50%
viability at 40 µM (MCF7 [21]): 89%
inhibition (MCF7 [22]): Active
inhibition (MCF7 [23]): tde
inhibition [24]: Active
Activity (MCF7 [25]): Active
inhibition [26]: Dose-dependent effect
viability at 60 µM (MCF7 [27]): 70%
inhibition (MCF7 [28]): Active
Ki (Caspase-3): 732 µM
Activity (MCF7 [29]): Active
inhibition (MCF7 [30]): Dose-dependent effect
Activity (MCF7 [31]): Dose-dependent effect
viability at 40 µM (MCF7 [32]): 66%
Activity (MCF7 [33]): Active
